Measurements reported in US5250537A, “5,6,7,8,9,10-hexahydro-7 ,10-iminocyclohept[b]indole,-6,7,8,9,10-hexahydro-7,11-imino-5H-cyclooct[ b]indole and substituted derivatives” (Scios Nova Inc., priority 1992, dated 1993).
Where a name gives a salt, the structure may show the parent alone. Read-outs that look alike come from different tables or passages of the source.

How the values were obtained:
[1] = Motor impairment (rotorod); assay type: in vivo, mice (CF-1); details: for dose at which impairment of rotorod performance was noted: oral
Procedure: (§1) The potency of selected compounds to produce catalepsy and motor impairment was evaluated according to the following methods. Groups of male CF-1 mice (Harlan Sprague-Dawley, Inc.), weighing 25-30 g, were food-deprived for 3-5 hours prior to oral administration of the compound of interest. These agents were suspended in 10% DMSO/10% Tween/80% distilled water vehicle and administered in a volume of 0.01 mL/g body weight. Fifty-five minutes after oral (po) administration, the presence or absence of catalepsy was determined by placing the forepaws on a rod (6 mm diameter) mounted 39 mm above the floor of the test chamber. Pressure was applied to immobilize the subject with its back in a concave position. Following removal of pressure, the latency to recover normal posture, as defined by the return of at least one forepaw to the floor of the chamber, or the placement of one hindlimb on the bar, was recorded. Mice were tested three times and considered cataleptic if recovery was not apparent within 30 seconds during any of the three trials. Following determination of catalepsy and at 60 minutes post administration of compound, motor impairment was determined by placing mice on a rotating knurled bar (Rotorod, Ugo Basile model 7600; 6-7 revolutions per minute; 3.8 cm diameter). Mice were tested up to three times; mice failing to remain on the bar for 60 sec during all three tests were considered impaired.

[2] = In vivo Cataleptic Activity; design: species or system mice (CF-1); details: for catalepsy (in words): any dose tested, oral
Procedure: as §1

dopamine receptors [3] = assay: In Vivo Dopamine Antagonist Activity (inhibition of apomorphine-induced climbing); design: species or system mice (CF-1)
dopamine D-2 receptors = details: Snyder and Largent 1988; cited from earlier work
sigma receptors = details: Snyder and Largent 1988; cited from earlier work
[4] = target: T1, sigma receptor ([3H](+)-3-PPP site) (Cavia porcellus, UniProt Q60492); assay: In Vitro Sigma Receptor Binding, [3H](+)-3-PPP; design: species or system guinea pig; details: 45 minutes at 25° C.
T1 construct: frozen guinea pig brains; tissue PelFreez Biologicals, Rogers, AK; host or cells: guinea pig brain membranes
Procedure: (§2) For both assays frozen guinea pig brains (PelFreez Biologicals, Rogers, AK) were thawed and homogenized in 10 volumes (w/v) of ice cold 0.32M sucrose using 10 strokes of a motor-drivenglass-fitted teflon pestle adjusted to 600 rpm. The homogenate was centrifuged (4° C.) at 900× g for 10 minutes and the resultant supernatant collected and centrifuged at 22,000×g for 20 minutes. The pellet obtained from the centrifugation was resuspended in 10 volumes of 50 mM Tris HCl (pH 7.4, 25° C.) and incubated for 30 minutes at 37° C. Following the preincubation, the homogenate was centrifuted at 22,000×g for 20 minutes and the final pellet was resuspended in buffer to a protein concentration of 0.5-1.0 mg/mL for use in the assay.
(§3) Binding reactions were initiated by the addition of tissue (800 μL) to tubes containing assay buffer, the radioligand (final concentration 1-3 nM) and the compound of interest. Haloperidol (10 μM) and (+)-3-PPP (10 μM) were used to determine the levels of […] [^3 H]DTG and [^3 H](+)PPP binding, respectively. Final assay volume was 1 mL. Reactions were allowed to proceed for 45 minutes at 25° C. and terminated by rapid filtration over Whatman GF/B filters which were washed 3 times with 5 mL of cold buffer. Radioactivity trapped on the filters was determined using routine methods. […] All assays were performed using triplicate determinations. For comparison purposes, IC50 values are reported rather than Ki values.

[5] = target: T2, serotonin 5-HT2 receptors (Rattus norvegicus, UniProt P14842); assay: In Vitro Serotonin (5-HT2) Receptor Binding, [3H]ketanserin; details: for Ki: rat cortical membranes, 1 nM [3H]ketanserin
T2 construct: Rat cortical synaptosomal membranes were prepared on the day of assay; from tissue; host or cells: rat frontal cortex synaptosomal membranes
Procedure: The potency of compounds to inhibit the specific binding of [^3 H]ketanserin (84.2 Ci/mM) to serotonin 5-HT2 receptors was determined as detailed previously [J. E. Leysen, C. J. E. Niemegers, J. M. Van Neuten and P. M. Laduron, Mol. Pharmacol., 21, 301-314 (1982)]. Rat cortical synaptosomal membranes were prepared on the day of assay. Animals were sacrified by decapitation, the frontal cortex was removed and homogenized in 10 volumes (w/v) of ice-cold 0.32M sucrose using a motor driven teflon pestle fitted to a glass tube. The synaptosomal pellet was suspended in 50 mM Tris HCl (pH 7.6 at 25° C.) to a concentration of 7.5 mg original wet weight/mL. For the binding reaction, 400 μL of this tissue suspension was added to polypropylene tubes containing 50 mM Tris HCl and [^3 H]ketanserin (final concentration of 1 nM) in a final assay volume of 0.5 mL. Following a 15 minute incubation at 37° C., the binding reaction was terminated by rapid vacuum filtration over Whatman GF/B filters (presoaked in 0.1% PEI) followed by 3×4 mL washes with ice cold 50 mM Tris HCl. Nonspecific binding was assessed in the presence of 10 μM methysergide. All incubations were performed in triplicate. IC50 values were determined using log logit analysis.

dopamine (D-2) receptors = target: T3, dopamine (D-2) receptors (Rattus norvegicus, UniProt P61169); assay: In Vitro Dopamine (D-2) Receptor Binding, [3H]sulpiride; details: read-out: Dopamine D-2 [3H]sulpiride Ki
T3 construct: the corpus striatum was dissected and homogenized; from tissue; host or cells: rat corpus striatum membranes
Procedure: On the day of assay, rats were sacrificed by decapitation, the corpus striatum was dissected and homogenized in 20 volumes of ice-cold 50 mM Tris HCl (pH 7.5, 25° C.). The homogenate was centrifuged (4° C.) at 48,000×g for 10 minutes and the resulting pellet was resuspended in 20 volumes of fresh buffer and recentrifuged. […] A portion of the suspension (800 μL) was added in triplicate to tubes containing 3 nM [^3 H]sulpiride and the test compound. The final assay volume was 1 mL; haloperidol (10 μM) was used to determine non-specific binding. Following a 60 minute incubation at 25° C., the reactions were terminated by rapid filtration over Whatman GF/B filters which had been pretreated in a solution of 0.3% (w/v) of aqueous polyethylenimine. Filters were washed three times using 5 mL of ice-cold buffer and processed using standard procedures to determine radioactivity. IC50 values were obtained from concentration-response curves in which a number of concentrations of test compound were examined. Ki values were determined using the Cheng-Prusoff equation.

[6] = target: sigma receptor ([3H]DTG site); assay: In Vitro Sigma Receptor Binding, [3H]DTG; details: guinea pig brain; 45 minutes at 25° C.
Procedure: as §2, §3

dopamine receptors [7] = details: Welch et al. 1980; cited from earlier work
[8] = guinea pig brain, read-out: Sigma [3H](+)-3-PPP binding IC50
[9] = rat corpus striatum, 3 nM [3H]sulpiride

T2 sequence (P14842 whole entry): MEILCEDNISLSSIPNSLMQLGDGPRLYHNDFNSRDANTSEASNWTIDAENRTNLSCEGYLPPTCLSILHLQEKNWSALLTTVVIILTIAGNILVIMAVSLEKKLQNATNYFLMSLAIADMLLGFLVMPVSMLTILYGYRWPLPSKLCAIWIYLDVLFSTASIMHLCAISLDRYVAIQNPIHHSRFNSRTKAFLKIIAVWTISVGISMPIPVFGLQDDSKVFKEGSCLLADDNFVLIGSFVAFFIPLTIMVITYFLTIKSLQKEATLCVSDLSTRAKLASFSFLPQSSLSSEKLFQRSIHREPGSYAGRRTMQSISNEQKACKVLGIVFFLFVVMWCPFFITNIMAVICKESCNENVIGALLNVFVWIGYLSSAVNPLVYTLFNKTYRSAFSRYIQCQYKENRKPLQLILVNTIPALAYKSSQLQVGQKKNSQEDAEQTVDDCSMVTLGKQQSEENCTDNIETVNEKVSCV
T1 sequence (Q60492 whole entry): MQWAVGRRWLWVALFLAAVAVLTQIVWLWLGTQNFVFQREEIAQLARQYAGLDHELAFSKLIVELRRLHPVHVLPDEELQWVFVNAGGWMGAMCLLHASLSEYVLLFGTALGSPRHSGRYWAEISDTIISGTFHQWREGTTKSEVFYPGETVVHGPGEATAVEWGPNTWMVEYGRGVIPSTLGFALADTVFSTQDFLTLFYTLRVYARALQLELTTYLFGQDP
T3 sequence (P61169 whole entry): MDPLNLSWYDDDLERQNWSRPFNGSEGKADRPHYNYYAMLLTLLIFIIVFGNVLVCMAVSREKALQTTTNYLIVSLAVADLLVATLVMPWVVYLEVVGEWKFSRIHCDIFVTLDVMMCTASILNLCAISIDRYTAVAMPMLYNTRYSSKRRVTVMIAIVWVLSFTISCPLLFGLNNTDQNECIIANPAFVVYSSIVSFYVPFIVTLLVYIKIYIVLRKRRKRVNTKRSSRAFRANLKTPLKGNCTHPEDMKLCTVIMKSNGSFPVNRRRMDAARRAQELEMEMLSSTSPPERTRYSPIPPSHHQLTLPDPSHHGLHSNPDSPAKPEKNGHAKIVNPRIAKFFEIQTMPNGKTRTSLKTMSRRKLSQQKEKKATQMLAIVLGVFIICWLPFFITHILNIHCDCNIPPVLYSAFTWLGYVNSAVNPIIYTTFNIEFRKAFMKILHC

**Q.** For `O=C(CCCN1C2CCC1c1c([nH]c3ccc(F)cc13)C2)c1ccc(F)cc1` (centres unmarked) [Example 4 F H (CH2)3 CO 4-FPh 2, 2-fluoro-11-[4-(4-fluorophenyl)-4-oxobutyl]-5,6,7,8,9,10-hexahydro-7,10-iminocyclohept[b]indole], which “Failing Rotorod Number” value ([1]; 300 mg/kg po, n=4) is on record?
**A.** 2

**Q.** And the “Failing Rotorod Number” value ([1]; 500 mg/kg po, n=3)?
**A.** 1

**Q.** What about the “dose at which impairment of rotorod performance was noted” value [1] of the same compound?
**A.** 300 to 500 mg/kg

**Q.** And the “Cataleptic Number” value ([2]; 300 mg/kg po, n=4)?
**A.** 0

**Q.** What about the “Cataleptic Number” value ([2]; 500 mg/kg po, n=3) of the same compound?
**A.** 0

**Q.** What about the “catalepsy (in words)” value [2] of the same compound?
**A.** catalepsy was not observed

**Q.** For `O=C(CCCN1CCC(O)(c2ccc(Cl)cc2)CC1)c1ccc(F)cc1` [haloperidol], which “potency to inhibit apomorphine-induced climbing (reference)” value (dopamine receptors [3]; intraperitoneal (ip) administration) is on record?
**A.** 0.01 mg/kg

**Q.** What about the “binding to dopamine D-2 receptors (in words)” value (dopamine D-2 receptors) of the same compound?
**A.** bind to both dopamine D-2 and sigma receptors

**Q.** And the “binding to sigma receptors (in words)” value (sigma receptors)?
**A.** bind to both dopamine D-2 and sigma receptors

**Q.** With `O=C(CCCN1C2CCCC1c1c([nH]c3ccc(F)cc13)C2)c1ccc(F)cc1` (centres unmarked) [12 F H (CH2)3 CO 4-FPh 3] as the compound, how does the IC50 [4, 8] read?
**A.** 103 nM

**Q.** What about the Ki [5] of the same compound?
**A.** 2.5 nM

**Q.** And the Ki (dopamine (D-2) receptors)?
**A.** 200 nM

**Q.** What about the IC50 [6] of the same compound?
**A.** 23 nM

**Q.** With `O=C(CCCCN1C2CCC1c1c([nH]c3ccccc13)C2)c1ccc(F)cc1` (centres unmarked) [Example 1 H H (CH2)4 CO 4-FPh 2, 11-[5-(4-fluorophenyl)-5-oxopentyl]-5,6,7,8,9,10-hexahydro-7,10-iminocyclohept[b]indole] as the compound, how does the “Failing Rotorod Number” value ([1]; 300 mg/kg po, n=4) read?
**A.** 1

**Q.** What about the “Failing Rotorod Number” value ([1]; 500 mg/kg po, n=4) of the same compound?
**A.** 4

**Q.** And the “dose at which impairment of rotorod performance was noted” value [1]?
**A.** 300 to 500 mg/kg

**Q.** And the “potency (ED50) to inhibit apomorphine-induced climbing” value (dopamine receptors [3]; oral administration, apomorphine 3 mg/kg sc)?
**A.** 15.7 mg/kg

**Q.** And the “Cataleptic Number” value ([2]; 300 mg/kg po, n=4)?
**A.** 0

**Q.** And the “Cataleptic Number” value ([2]; 500 mg/kg po, n=4)?
**A.** 0

**Q.** What about the “catalepsy (in words)” value [2] of the same compound?
**A.** catalepsy was not observed

**Q.** Which “neuroleptic activity (in words)” value (dopamine receptors [7]) does the source give for `OC(CCCN1CC[C@@H]2[C@@H](C1)c1cc(F)ccc1N2c1ccc(F)cc1)c1ccc(F)cc1` (relative stereo) [4a,9b-trans-8-fluoro-5-(4-fluorophenyl)-2-[4-(4-fluorophenyl)-4-hydroxy-butyl]-2,3,4,4a,9b-hexahydro-1H-pyrido[4,3-b]indole hydrochloride] here?
**A.** potent neuroleptic which acts by blocking dopamine receptors

**Q.** Which IC50 [4, 8] does the source give for `Fc1ccc(C(=CCCN2C3CCCC2c2c([nH]c4ccccc24)C3)c2ccc(F)cc2)cc1` (centres unmarked) [11 H H (CH2)2 CHC (4-FPh)2 3] here?
**A.** > 10000 nM

**Q.** What about the Ki [5] of the same compound?
**A.** > 1000 nM

**Q.** And the Ki (dopamine (D-2) receptors; [9])?
**A.** 2310 nM

**Q.** And the IC50 [6]?
**A.** 1880 nM

**Q.** What does the source list for `Fc1ccc(C(=CCCN2C3CCCC2c2c([nH]c4ccc(F)cc24)C3)c2ccc(F)cc2)cc1` (centres unmarked) [12 F H (CH2)2 CHC (4-FPh)2 3]?
**A.** IC50 [4, 8]: 10000 nM; Ki [5]: 625 nM; Ki (dopamine (D-2) receptors; [9]): 3730 nM; IC50 [6]: 1910 nM

**Q.** For `Clc1ccc(OCCN2C3CCC2c2c([nH]c4ccccc24)C3)cc1` (centres unmarked) [1 H H (CH2)2 O-4-ClPh 2], which IC50 [4, 8] is on record?
**A.** 5980 ± 3510 nM

**Q.** And the Ki [5]?
**A.** 377 nM

**Q.** And the Ki (dopamine (D-2) receptors; [9])?
**A.** 530 nM

**Q.** And the IC50 [6]?
**A.** 268 ± 38 nM

**Q.** What does the source list for `CC(C)n1c2c(c3ccccc31)C1CCC(C2)N1CCCCc1ccccc1` (centres unmarked) [5 H 2-Pr (CH2)4 Ph 2]?
**A.** IC50 [4, 8]: 705 ± 20 nM; inhibition at 1 µM ([5]; […], read-out: Serotonin 5-HT2 [3H]ketanserin, % @ 1 μM): 46%; Ki (dopamine (D-2) receptors; [9]): 2640 ± 270 nM; IC50 [6]: 231 nM

**Q.** With `c1ccc(CCCCN2C3CCC2c2c(n(Cc4ccccc4)c4ccccc24)C3)cc1` (centres unmarked) [5 H Bn (CH2)4 Ph 2] as the compound, how does the IC50 [4, 8] read?
**A.** 396 ± 92 nM

**Q.** What about the Ki [5] of the same compound?
**A.** 506 nM

**Q.** What about the Ki (dopamine (D-2) receptors; [9]) of the same compound?
**A.** 1830 nM

**Q.** What about the IC50 [6] of the same compound?
**A.** 267 ± 87 nM

**Q.** Which “binding to dopamine D-2 receptors (in words)” value (dopamine D-2 receptors) does the source give for `CN(C)CCCN1c2ccccc2Sc2ccc(Cl)cc21` [chlorpromazine] here?
**A.** bind to both dopamine D-2 and sigma receptors

**Q.** What about the “binding to sigma receptors (in words)” value (sigma receptors) of the same compound?
**A.** bind to both dopamine D-2 and sigma receptors

**Q.** For `Fc1ccc(CCCCN2C3CCCC2c2c([nH]c4ccccc24)C3)cc1` (centres unmarked) [11 H H (CH2)4 4-FPh 3], which IC50 [4, 8] is on record?
**A.** 279 nM

**Q.** And the Ki [5]?
**A.** 23.6 nM

**Q.** And the Ki (dopamine (D-2) receptors; [9])?
**A.** 915 nM

**Q.** And the IC50 [6]?
**A.** 64 nM

**Q.** What does the source list for `Fc1ccc2[nH]c3c(c2c1)C1CCCC(C3)N1CCCCc1ccccc1` (centres unmarked) [12 F H (CH2)4 Ph 3]?
**A.** IC50 [4, 8]: 117 nM; Ki [5]: 172 nM; Ki (dopamine (D-2) receptors; [9]): 1870 nM; IC50 [6]: 42 nM

**Q.** Which results are given for `c1ccc(CCCCCN2C3CCC2c2c([nH]c4ccccc24)C3)cc1` (centres unmarked) [1 H H (CH2)5 Ph 2]?
**A.** IC50 [4, 8]: 348 ± 70 nM; Ki [5]: 42.5 nM; Ki (dopamine (D-2) receptors; [9]): 680 ± 230 nM; IC50 [6]: 107 ± 59 nM

**Q.** What does the source list for `O=C(CCCN1C2CCCC1c1c([nH]c3ccccc13)C2)c1ccc(F)cc1` (centres unmarked) [11 H H (CH2)3 CO 4-FPh 3]?
**A.** IC50 ([4]; Sigma [3H](+)-3-PPP binding IC50, guinea pig brain): 89 nM; Ki [5]: 0.46 nM; Ki (dopamine (D-2) receptors; [9]): 38 nM; IC50 [6]: 43 nM
